Reference: US12258376B2, “Fusion protein of DCTN1 protein with RET protein” (TAIHO PHARMACEUTICAL CO., LTD., priority 2017, dated 2025)

Columns and labels:
[1] = biological target: T1, phosphorylated RET in DCTN1-RET fusion gene-expressing NIH/3T3 cells (Homo sapiens, UniProt P07949); test: Inhibition of RET phosphorylation in DCTN1-RET fusion gene-expressing cells (western blotting); assay type: cell-based; settings: 1000, 100 and 10 nmol/L, 1 hour incubation, FIG. 9
T1 construct: expressed in transfected cells; the other entry of the earlier key: Dctn1 (O08788, Dynactin subunit 1)
Method: The expression of DCTN1-RET fusion protein in the obtained DCTN1-RET fusion gene-expressing NIH/3T3 cells was confirmed by western blotting. Specifically, the medium was removed from the culture flask, followed by washing with PBS once. Sample Diluent Concentrate 2 (R&D Systems) containing a phosphatase inhibitor (Roche) and a protease inhibitor (Roche) was added to the culture flask, and the cell lysate was collected with a scraper. From the collected cell lysate, a protein sample was obtained by centrifugation. The protein sample was subjected to protein determination, and the protein concentration was adjusted to a prescribed concentration. […] After the membrane was washed with TBS-T, the protein was detected using a SuperSignal West Dura Extended Duration Substrate (Thermo Fisher) with an Amersham Imager 600 lumino image analyzer (GE Healthcare). The molecular weight of the detected protein was confirmed with Precision Plus Protein Kaleidoscope Prestained Protein Standards (Bio-Rad). As shown in FIG. 4a) and 4b), endogenous RET (150 and 175 kDa) was not detected when the anti-pRET antibody or the anti-RET antibody was used. […] Additionally, as shown in FIG. 4c), endogenous DCTN1 was detected at around 150 kDa in the use of the anti-DCTN1 antibody. […]

[2] = tested on: DCTN1-RET fusion gene-expressing NIH/3T3 cells; test: In vitro cell growth assay, 3-dimensional cell culture, intracellular ATP luminescence (CellTiter-Glo 2.0); settings: for GI50: Mus musculus, NIH3T3
DCTN1-RET fusion protein = test: Inhibition of DCTN1-RET fusion protein expression by siRNA (western blotting); assay type: cell-based, human; settings: siRNA treatment overnight, DCTN1-RET fusion gene-expressing NIH/3T3 cells, FIG. 7
[3] = tested on: DCTN1-RET fusion gene-expressing NIH/3T3 cells; test: Cell growth inhibitory effect of siRNA, 3-dimensional cell culture; assay type: cell-based, mouse; settings: 3-dimensional cell culture after siRNA treatment; no treatment 4.9 times, negative control siRNA 3.6 times; FIG. 8
Method: NIH/3T3 cells grow well under 2-dimensional cell culture conditions, but barely grow under 3-dimensional cell culture conditions. However, NIH/3T3 cells are also known to grow under 3-dimensional cell culture conditions when an oncogene is expressed in the cells. Thus, whether the DCTN1-RET fusion gene is an oncogene was confirmed using this character. DCTN1-RET fusion gene-expressing NIH/3T3 cells and NIH/3T3 cells were cultured at 37° C. in 5% CO2 in a 2-dimensional cell culture; and collected with trypsin, followed by counting the number of cells. To perform a 3-dimensional cell culture, a medium for 3-dimensional cell culture was prepared using an FCeM-series Preparation Kit (Nissan Chemical Industries, Ltd.), D-MEM (high glucose) (containing L-glutamine, phenol red, sodium pyruvate, and 1500 mg/L sodium hydrogen carbonate) (Wako), and newborn calf serum (NBCS) (Gibco). […] The day following seeding (day 1) and after 8 days from seeding (day 8), the luminescence level (counts per second: cps) was measured using a detection reagent for intracellular ATP luminescence (CellTiter-Glo 2.0 reagent, Promega) with a luminometer (EnSpire, PerkinElmer), and the result was determined to be the indicator for viable cell count. The cell growth rate was then calculated from the measurement result on day 1 and the measurement result on day 8 (N=3). […]
Subsequently, to confirm a cell growth inhibitory effect, cells were collected with trypsin from the wells without treatment and wells treated with siRNA, and the number of cells was counted. A 3-dimensional cell culture was then performed in the same manner as in Example 5, and on the day seeding was performed (day 0) and after 4 days from seeding (day 4), the number of viable cells was counted in the same manner as in Example 5. The growth rate of the cells was calculated from the measurement result on day 0 and the measurement result on day 4.

T1 sequence (P07949 with tags, fused parts or gaps with the stated changes): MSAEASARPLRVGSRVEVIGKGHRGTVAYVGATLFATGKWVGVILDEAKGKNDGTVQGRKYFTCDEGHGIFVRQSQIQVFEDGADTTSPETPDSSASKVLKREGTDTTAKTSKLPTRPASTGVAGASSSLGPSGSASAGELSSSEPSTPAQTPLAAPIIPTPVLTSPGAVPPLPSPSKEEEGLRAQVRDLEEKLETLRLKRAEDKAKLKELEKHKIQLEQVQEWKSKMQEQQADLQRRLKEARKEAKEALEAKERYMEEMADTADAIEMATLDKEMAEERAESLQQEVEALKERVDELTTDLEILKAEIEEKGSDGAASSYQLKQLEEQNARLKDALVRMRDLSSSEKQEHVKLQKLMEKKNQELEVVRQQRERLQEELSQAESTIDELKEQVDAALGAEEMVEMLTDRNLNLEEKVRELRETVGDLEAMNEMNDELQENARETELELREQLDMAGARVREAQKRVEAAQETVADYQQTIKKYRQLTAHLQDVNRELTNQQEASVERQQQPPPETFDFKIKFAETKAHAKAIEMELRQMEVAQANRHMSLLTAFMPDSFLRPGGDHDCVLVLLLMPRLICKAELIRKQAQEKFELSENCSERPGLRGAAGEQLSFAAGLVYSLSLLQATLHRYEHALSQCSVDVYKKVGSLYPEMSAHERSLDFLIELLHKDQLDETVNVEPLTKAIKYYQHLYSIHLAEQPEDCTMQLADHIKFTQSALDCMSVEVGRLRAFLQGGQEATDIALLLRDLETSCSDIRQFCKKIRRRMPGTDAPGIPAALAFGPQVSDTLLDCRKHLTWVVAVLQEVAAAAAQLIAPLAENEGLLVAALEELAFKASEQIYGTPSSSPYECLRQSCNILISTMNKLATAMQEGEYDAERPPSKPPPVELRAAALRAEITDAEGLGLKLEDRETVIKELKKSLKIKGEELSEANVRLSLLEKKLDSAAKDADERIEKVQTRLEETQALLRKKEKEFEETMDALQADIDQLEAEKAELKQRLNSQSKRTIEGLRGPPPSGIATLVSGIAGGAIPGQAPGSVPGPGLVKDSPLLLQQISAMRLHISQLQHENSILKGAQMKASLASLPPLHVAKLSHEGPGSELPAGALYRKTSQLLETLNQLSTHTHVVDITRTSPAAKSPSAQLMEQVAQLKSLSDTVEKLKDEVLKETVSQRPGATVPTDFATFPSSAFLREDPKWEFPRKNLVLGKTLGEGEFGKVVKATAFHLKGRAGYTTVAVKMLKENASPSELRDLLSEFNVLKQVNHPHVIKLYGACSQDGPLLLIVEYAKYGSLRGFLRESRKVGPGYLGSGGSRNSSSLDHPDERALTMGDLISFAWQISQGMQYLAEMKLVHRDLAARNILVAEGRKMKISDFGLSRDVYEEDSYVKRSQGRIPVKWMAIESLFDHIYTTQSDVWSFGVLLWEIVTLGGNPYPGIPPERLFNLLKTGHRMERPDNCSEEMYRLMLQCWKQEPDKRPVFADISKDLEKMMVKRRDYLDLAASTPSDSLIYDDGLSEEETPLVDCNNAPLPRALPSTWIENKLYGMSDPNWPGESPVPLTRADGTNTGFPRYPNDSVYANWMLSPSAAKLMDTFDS

Compound | GI50 [2] | expression of the DCTN1-RET fusion protein (DCTN1-RET fusion protein) | growth: number of cells on day 4 relative to day 0 [3] | further results
COc1cc2nccc(Oc3ccc(NC(=O)NC4CC4)c(Cl)c3)c2cc1C(N)=O [Lenvatinib] | 50.3 nM | – | – | phosphorylated RET levels [1]: notably decreased; growth of DCTN1-RET fusion gene-expressing NIH/3T3 cells ([2]; result in words, as shown in Table 7): inhibited the growth
CACAUGUCAUCAAAUUGUATT (CACAUGUCAUCAAAUUGUANN; listed as RNA, chemistry not given here) [RET siRNA1, siRNA targeting human RET] | – | inhibited | about 2.0 times | –
GGAUUGAAAACAAACUCUATT (GGAUUGAAAACAAACUCUANN; listed as RNA, chemistry not given here) [RET siRNA2, siRNA targeting human RET] | – | inhibited | ~2.4 times | –
COCc1ccc(NC(=O)c2c(C#CCN3CCOCC3)n(C3(C)CC3)c3ncnc(N)c23)cc1 [Compound 6, 4-amino-N-[4-(methoxymethyl)phenyl]-7-(1-methylcyclopropyl)-6-(3-morpholinopro-1-pyn-1-yl)-7H-pyrrolo[2,3-d]pyrimidine-5-carboxamide] | 3.6 nM | – | – | –
CCc1cc2c(cc1N1CCC(N3CCOCC3)CC1)C(C)(C)c1[nH]c3cc(C#N)ccc3c1C2=O [Alectinib] | > 1000 nM | – | – | –
COc1cc2c(Nc3ccc(Br)cc3F)ncnc2cc1OCC1CCN(C)CC1 [Vandetanib] | 68.7 nM | – | – | –
CCACUGCUACCACAAGUUUTT (CCACUGCUACCACAAGUUUNN; listed as RNA, chemistry not given here) [RET siRNA3, siRNA targeting human RET] | – | not inhibited | 3.7 times | –
COc1cc2nccc(Oc3ccc(NC(=O)C4(C(=O)Nc5ccc(F)cc5)CC4)cc3)c2cc1OC [Cabozantinib] | 91.1 nM | – | – | –
